Laboratory results: patent US12404239B2, “Modulators of BCL6 as ligand directed degraders” (Celgene Corporation, priority 2022, dated 2025)

What follows are compounds tested against T1, BCL6 (Homo sapiens, UniProt P41182) (assay: BCL6_HiBiT degradation assay (2 h)). Conditions: DHL-4_BCL6_HiBiT cells, read-out: YCon (% remaining maximal effect).
T1 construct: HiBiT-tag knocked into endogenous BCL6 locus using CRISPR; endogenous in cells; host or cells: DHL-4_BCL6_HiBiT cells (CRISPR knock-in)
Assay type: cell-based
Method: A DHL-4 cell line with HiBiT-tag knocked into endogenous BCL6 locus using CRISPR was generated. The DHL-4_BCL6_HiBiT cells were dispensed into 384-well plates (Corning no. 3570) that were pre-spotted with compounds. Compounds were dispensed by an acoustic dispenser (ATS acoustic transfer system from EDC Biosystems) into a 384-well plate in a 10-point dose response curve using 3-fold dilutions starting at 1-10 μM and going down to […]. 25 μL of media (RPMI-1640+10% heat inactivated FBS+1×Pen/Strep) containing 2500 of DHL-4 was dispensed per well. Assay plates were incubated at 37° C. with 5% CO2 for 2 hours. After incubation, 25 μL of the Nano-Glo HiBiT lytic detection working solution (Promega, catalogue no. N3040, Madison, WI) was added to each well and incubated at room temperature for 15-30 min, protected from light. After 30 min, luminescence was read on an Envision or PHERAstar luminescence reader. To determine the EC50 value (the half-maximum effective concentration) and the level of the gradation (Yconstant) of a BCL6 degrader, luminescent signal normalized by DMSO control (Y) and compound concentration (x) was fitted using a four-parameter dose-response model (Y=(A+((B−A)/1+((C/x)^D) in Dotmatics. Fitted value C is the degradation EC50 and the minimum value A is the Y constant.
The degradation of BCL6 at 2 h in DHL-4 results are shown in Table 5, where EC50 is the half maximal effect and Ycon is the % remaining maximal effect.

Row | SMILES | Percent BCL6 remaining at maximal degradation (Ycon) [%]
1 | Cn1nc(C2CCC(=O)NC2=O)c2ccc(N3CCC(Nc4ncc(Cl)c(Nc5ccc6c(c5)N(CCC(C)(C)O)C(=O)C6)n4)CC3)cc21 (stereo not drawn) [Example 8, 3-(6-(4-((5-chloro-4-((1-(3-hydroxy-3-methylbutyl)-2-oxoindolin-6-yl)amino)pyrimidin-2-yl)amino)piperidin-1-yl)-1-methyl-1H-indazol-3-yl)piperidine-2,6-dione] | > 60
2 | Cn1nc(C2CCC(=O)NC2=O)c2ccc(NC3CCN(c4ncc(Cl)c(Nc5ccc6c(c5)N(CCC(C)(C)O)C(=O)C6)n4)CC3)cc21 (stereo not drawn) [Example 9, 3-[6-[[1-[5-Chloro-4-[[1-(3-hydroxy-3-methyl-butyl)-2-oxo-indolin-6-yl]amino]pyrimidin-2-yl]-4-piperidyl]amino]-1-methyl-indazol-3-yl]piperidine-2,6-dione] | > 60
3 | CN(c1ccc2c(C3CCC(=O)NC3=O)nn(C)c2c1)C1CCN(c2ncc(Cl)c(Nc3ccc4c(c3)N(CCC(C)(C)O)C(=O)C4)n2)CC1 (stereo not drawn) [Example 10, 3-(6-((1-(5-chloro-4-((1-(3-hydroxy-3-methylbutyl)-2-oxoindolin-6-yl)amino)pyrimidin-2-yl)piperidin-4-yl)(methyl)amino)-1-methyl-1H-indazol-3-yl)piperidine-2,6-dione] | 20 to 60
4 | CN(c1ncc(Cl)c(Nc2ccc3c(c2)N(CCC(C)(C)O)C(=O)C3)n1)C1CCN(c2ccc3c(C4CCC(=O)NC4=O)nn(C)c3c2)CC1 (stereo not drawn) [Example 11, 3-(6-(4-((5-chloro-4-((1-(3-hydroxy-3-methylbutyl)-2-oxoindolin-6-yl)amino)pyrimidin-2-yl)(methyl)amino)piperidin-1-yl)-1-methyl-1H-indazol-3-yl)piperidine-2,6-dione] | > 60
5 | C[C@@H]1CN(c2ncc(Cl)c(Nc3ccc4c(c3)CC(=O)N4C)n2)CC[C@@H]1Nc1ccc2c(C3CCC(=O)NC3=O)nn(C)c2c1 (stereo partly drawn) [Example 12, 3-(6-{[(3R,4S)-1-{5-chloro-4-[(1-methyl-2-oxo-2,3-dihydro-1H-indol-5-yl)amino]pyrimidin-2-yl}-3-methylpiperidin-4-yl]amino}-1-methyl-1H-indazol-3-yl)piperidine-2,6-dione] | < 20
6 | C[C@H]1CN(c2ncc(Cl)c(Nc3ccc4c(c3)CC(=O)N4C)n2)CC[C@H]1Nc1ccc2c(C3CCC(=O)NC3=O)nn(C)c2c1 (stereo partly drawn) [Example 13, 3-(6-(((3S,4R)-1-(5-chloro-4-((1-methyl-2-oxoindolin-5-yl)amino)pyrimidin-2-yl)-3-methylpiperidin-4-yl)amino)-1-methyl-1H-indazol-3-yl)piperidine-2,6-dione] | > 60
7 | C[C@H]1CN(c2ncc(Cl)c(Nc3ccc4c(c3)CC(=O)N4C)n2)CC[C@@H]1Nc1ccc2c(C3CCC(=O)NC3=O)nn(C)c2c1 (stereo partly drawn) [Example 14, 3-(6-(((3S,4S)-1-(5-chloro-4-((1-methyl-2-oxoindolin-5-yl)amino)pyrimidin-2-yl)-3-methylpiperidin-4-yl)amino)-1-methyl-1H-indazol-3-yl)piperidine-2,6-dione] | > 60
8 | CN1C(=O)Cc2cc(Nc3nc(N(C)C4CC5CCC(C4)N5c4ccc5c(C6CCC(=O)NC6=O)nn(C)c5c4)ncc3Cl)ccc21 [Example 15, 3-(6-((1R,3s,5S)-3-((5-chloro-4-((1-methyl-2-oxoindolin-5-yl)amino)pyrimidin-2-yl)(methyl)amino)-8-azabicyclo[3.2.1]octan-8-yl)-1-methyl-1H-indazol-3-yl)piperidine-2,6-dione] | > 60
9 | CN1C(=O)Cc2cc(Nc3nc(N(C)[C@H]4C[C@H]5CC[C@@H](C4)N5c4ccc5c(C6CCC(=O)NC6=O)nn(C)c5c4)ncc3Cl)ccc21 (stereo partly drawn) [Example 16, 3-(6-((1R,3r,5S)-3-((5-chloro-4-((1-methyl-2-oxoindolin-yl)amino)pyrimidin-2-yl)(methyl)amino)-8-azabicyclo[3.2.1]octan-8-yl)-1-methyl-1H-indazol-3-yl)piperidine-2,6-dione] | 20 to 60
